Reference: ChEMBL document CHEMBL4400510, “Synthesis and antitubercular evaluation of reduced lipophilic imidazo[1,2-a]pyridine-3-carboxamide derivatives” (Eur J Med Chem, 2019)

How the values were obtained:
[1] = test system: Mycobacterium tuberculosis; assay: Antitubercular activity against multi drug resistant Mycobacterium tuberculosis 16995 after 7 days by MABA method; assay type: functional; details: Mycobacterium tuberculosis, 16995, 168 h
[2] = test system: Mycobacterium tuberculosis; assay: Antitubercular activity against multi drug resistant Mycobacterium tuberculosis 16833 after 7 days by MABA method; assay type: functional; details: Mycobacterium tuberculosis, 16833, 168 h
[3] = Selectivity index, ratio of CC50 for African green monkey Vero cells to MIC>90 multi drug resistant Mycobacterium tuberculosis 16995; assay type: toxicity; details: read-out: Selectivity Index

SMILES | MIC90 [1] [µM] | MIC90 [2] [µM] | selectivity ratio [3]
CCc1nc2ccc(Cl)cn2c1C(=O)NCc1ccc(N2CCN(Cc3ccc(OC(F)(F)F)cc3)CC2)cc1 | < 0.035 | < 0.035 | –
CCc1nc2ccc(Cl)cn2c1C(=O)NCc1ccc(N2CC3CN(CC4CCCCC4)CC3C2)cc1 (configuration not stated) | < 0.035 | < 0.035 | > 1000
CCc1nc2ccc(Cl)cn2c1C(=O)NCc1ccc(N2CC3CN(c4ccc(OC(F)(F)F)cc4)CC3C2)cc1 (configuration not stated) | < 0.035 | < 0.035 | –
CCc1nc2ccc(Cl)cn2c1C(=O)NCc1ccc(N2CC3CN(Cc4ccc(OC(F)(F)F)cc4)CC3C2)cc1 (configuration not stated) | < 0.035 | < 0.035 | > 586
CCc1nc2ccc(Cl)cn2c1C(=O)NCc1ccc(N2CCC3(CC2)CCN(c2ccc(OC(F)(F)F)cc2)CC3)cc1 | < 0.035 | < 0.035 | > 1000
CCc1nc2ccc(Cl)cn2c1C(=O)NCc1ccc(N2CC3CCC2CN3CC2CCCCC2)cc1 (configuration not stated) | < 0.035 | < 0.035 | –
CCc1nc2ccc(Cl)cn2c1C(=O)NCc1ccc(N2CCN(CC3CCCCC3)CC2)cc1 | < 0.035 | < 0.035 | > 1000
NNC(=O)c1ccncc1 [ISONIAZID] | > 40 | > 40 | –
O=c1nc(N2CCN(CC3CCCCC3)CC2)sc2c([N+](=O)[O-])cc(C(F)(F)F)cc12 [MACOZINONE] | < 0.035 | < 0.035 | –
CO[C@H]1/C=C/O[C@@]2(C)Oc3c(C)c(O)c4c(O)c(c(/C=N/N5CCN(C)CC5)c(O)c4c3C2=O)NC(=O)/C(C)=C\C=C\[C@H](C)[C@H](O)[C@@H](C)[C@@H](O)[C@@H](C)[C@H](OC(C)=O)[C@@H]1C [RIFAMPIN] | > 40 | > 40 | –
CCc1nc2ccc(Cl)cn2c1C(=O)NCc1ccc(N2CCC(c3ccc(OC(F)(F)F)cc3)CC2)cc1 [TELACEBEC] | < 0.035 | < 0.035 | > 1000
